The results in this text go back to patent US6878689B2, “Preventives or remedies for heart failure” (Kaken Pharmaceutical Co., Ltd., priority 2000, dated 2005).

SMILES strings stand for the structures. Where a SMILES comes first, the peptide text is derived from it. [ ]: non-standard residue; d: D form. d2Nal = N[C@H](Cc1ccc2ccccc2c1)C(=O)O

This assay relates to papillary muscle of guinea-pig. Kind of assay: Myocardial contractility (developed tension) in isolated, electrically driven papillary muscle of guinea-pig. As to conditions: cumulative 10, 30 and 100 μM; n=5; FIG. 1. The protocol:
[Test Example 1] Myocardial Contractility Enhancing Action of Pralmorelin in the Papillary Muscle of Guinea-Pig
The direct effect of pralmorelin on myocardial contractility was evaluated using the isolated cardiac muscle of guinea-pigs according to the standard method for evaluating myocardial contractility. • 1. Materials and Experimental Method • 1) Animal Used
Male Hartley guinea-pigs (body weight, 301-350 g; Japan SLC) were purchased. The animals were accommodated to an environment at a temperature of 23±2° C. and a humidity of 55±15% under 12-hr light/dark cycles while they were allowed to eat and drink water ad libitum until they weighed 360-480 g. Each test substance was tested on a group of five animals. • 2) Reagents Used
The test substances were pralmorelin dihydrochloride (KP-102), representatives of growth hormone secretagogues such as hexarelin, ghrelin and ibutamorelin methanesulfonate (the last being hereunder referred to as MK-0677) (which were prepared by the method described in JP 6-263737 A (kokai)), as well as a recombinant human growth hormone (Sumitomo Pharmaceutical) and amrinone (Sigma) which is a known therapeutic of acute heart failure. KP-102, hexarelin and MK-0677 were dissolved in distilled water. Ghrelin was dissolved in physiological saline. Amrinone was first dissolved in dimethyl sulfoxide and then diluted with physiological saline. The growth hormone was dissolved in a dedicated solubilizer (0.3 w/v % metacresol and 3.9 w/v % D-mannitol). None of the test substance solutions should be added in an amount exceeding 1 w/v %. All reagents other than the test substances were guaranteed products of Nacalai Tesque. • 3) Preparing Specimens of the Isolated Papillary Muscle
The guinea-pigs were stunned with a blow to the back of their head; thereafter, the carotid artery was incised and the animals were exsanguinated to death. The chest was opened, the blood vessels in the upper part of the heart were cut and the heart was removed. The heart was immediately transferred into a Krebs-Henseleit (K-H) nutrient solution (NaCl, 118.0 mM; KCl, 4.7 mM; CaCl2. 2H2O, 1.0 mM; KH2PO4, 1.2 mM; MgSO4.7H2O, 1.2 mM; NaHCO3, 25.0 mM; glucose, 11.0 mM) that had been fully aerated with 95% O2-5% CO2. The heart was fixed on a rubber-lined Petri dish with needles such that its front face was seen. The ventricular wall of the upper right ventricle (toward the atrium) was excised transversely along the atrium, then excised longitudinally along the interventricular septum so that the ventricular wall was opened to expose the right ventricular papillary muscle. Subsequently, the entire surface of the left ventricle was cut open from the aorta (down) to the apex and the anterior wall of the left ventricle was opened wide, to both right and left, and fixed to expose the papillary muscle of the left ventricle. The tricupsid or mitral valve was cut off from the ventricle and the papillary muscle was cut off at the base to prepare a specimen of papillary muscle. The base of the specimen was fixed to field stimulating electrodes in an organ bath filled with 15 mL of the nutrient solution. The tendinous cord adhering to the valve was tied up with a thread and connected to an FD pickup (TB-612T, Nihon Kohden). A resting tension of 0.5 g was loaded and the papillary muscle was driven with an electric stimulator (SEN-3201, Nihon Kohden) at a frequency of 1 Hz by pulses of 20-ms duration and at a voltage intensity about 1.2 times the threshold. After an equilibration period of about 1 hr, KP-102, hexarelin and amrinone were each applied cumulatively up to amounts of 10, 30 and 100 μM. After examination of the changes in inotropic action due to the application of the test substances, 12.5 mM of CaCl2 was added and the maximum tension that was developed by each specimen was obtained. […]

In the case of `C[C@H](NC(=O)[C@@H](Cc1ccc2ccccc2c1)NC(=O)[C@@H](C)N)C(=O)N[C@@H](Cc1c[nH]c2ccccc12)C(=O)N[C@H](Cc1ccccc1)C(=O)N[C@@H](CCCCN)C(N)=O` [KP-102, D-alanyl-3-(naphthalen-2-yl)-D-alanyl-L-alanyl-L-tryptophyl-D-phenylalanyl-L-lysinamide] (H-[dA][d2Nal]AW[dF]K-NH2), the “tension development (positive inotropic action) vs baseline” value is listed as “significant effect over the baseline value”.
